Laboratory results published in paper PMC11188874, “HDAC6 Inhibition Releases HR23B to Activate Proteasomes, Expand the Tumor Immunopeptidome and Amplify T-cell Antimyeloma Activity” (Cancer Research Communications, 2024).

Legend:
[1] = system: proteasome ChT-like activity in RPMI-8226 cells; test: Cell-based high-throughput screen of proteasome ChT-like activity (LLVY-R110); design: species or system human; details: 3 µmol/L, 21 hours, then LLVY-R110 18 hours
[2] = system: E.G7-Ova cells; test: Quantitation of […]–MHC-I complex by flow cytometry; format: cell-based, mouse
[3] = system: RPMI-8226 cells; test: Myeloma MHC-I immunopeptidome analysis by MS; format: cell-based, human; details: BTZ, 18 hours
[4] = system: RPMI8226 cells; test: Aggresome formation (Proteostat kit, flow cytometry); format: cell-based, human; details: 16 h
[5] = system: RPMI8226 cells; test: Autophagosome formation (Cyto-ID kit, flow cytometry); format: cell-based, human; details: 16 h
[6] = target: T1, SIRT2 (Homo sapiens, UniProt Q8IXJ6); test: In vitro biochemical activity assay, SIRT2; details: 10-dose, 3-fold serial dilution; fluorogenic peptide p53 residues 379-382 and NAD
T1 construct: purchased Reaction Biology (Malvern, PA)
T1 sequence (Q8IXJ6 1-389): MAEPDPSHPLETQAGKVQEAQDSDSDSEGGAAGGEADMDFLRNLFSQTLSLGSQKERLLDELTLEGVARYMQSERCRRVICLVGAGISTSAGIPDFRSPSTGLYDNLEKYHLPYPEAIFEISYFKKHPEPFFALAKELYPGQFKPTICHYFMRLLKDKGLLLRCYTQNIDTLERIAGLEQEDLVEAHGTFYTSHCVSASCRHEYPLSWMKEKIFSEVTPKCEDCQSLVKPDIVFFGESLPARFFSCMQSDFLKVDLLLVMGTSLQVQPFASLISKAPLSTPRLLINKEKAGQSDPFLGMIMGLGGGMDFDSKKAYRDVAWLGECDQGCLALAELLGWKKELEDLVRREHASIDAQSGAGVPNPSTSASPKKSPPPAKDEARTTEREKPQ

Structure (SMILES) | Fold-Decrease of proteasome ChT-like activity in the HTS [1] [fold] | SIINFEKL–MHC-I complex presentation (in words) [2] | global peak intensity of peptides (in words) [3] | number of peptides decreased by at least 20-fold [3] | number of peptides with 2-fold or greater decrease [3] | formation of aggresomes [4] | formation of autophagosomes [5] | IC50 [6] [µM]
CC(C)C[C@H](NC(=O)[C@H](Cc1ccccc1)NC(=O)c1cnccn1)B(O)O [Bortezomib] | 4 | reduced | slightly decreased | seven | 1,707 peptides | increased | increased | –
Cc1ccc(C(=O)Nc2ccc(S(=O)(=O)O)c3cc(S(=O)(=O)O)cc(S(=O)(=O)O)c23)cc1NC(=O)c1cccc(NC(=O)Nc2cccc(C(=O)Nc3cc(C(=O)Nc4ccc(S(=O)(=O)O)c5cc(S(=O)(=O)O)cc(S(=O)(=O)O)c45)ccc3C)c2)c1 [Suramin] | – | – | – | – | – | – | – | 24.3
